Measurements published in US11339124B2, “3-(benzylamino)-4-(cyclohexylamino)-n-(2-(piperazin-1-yl)ethyl)benzenesulfonamide derivatives and related ferrostatin-1 analogues as cell death inhibitors for treating e.g. stroke” (VIB VZW, priority 2018, dated 2022).
Where “and” joins values, the source holds several entries; their conditions need not be identical. Equal values may be shown once. Read-outs that look alike come from different tables or passages of the source. Marks after values point to notes of the source that are not given here.

Experiment: Tissue distribution in rats 24 h after iv dose
Assay type: in vivo
Conditions: rat, 5 mg/kg iv; for concentration at 24 h: male, Wistar, iv
Experimental: To assess the extent of tissue distribution of compound 39, various organs (liver, kidney and lungs) of all three rats were collected on ice at necropsy 24 hours after administration before being homogenized and analyzed.
Each rat received an iv dose at 5 mg/kg and the internal organs were collected at narcopsy at 24 h. The organs were homogenized and further processed by protein precipitation (n=3) and centrifugation. Analysis of the samples was conducted by LC-MS.
Tissues (liver, kidneys and lungs) were collected on ice at necropsy at 24 h (after prior exsanguination), homogenized using a gentle MACS™ Dissociator and stored at −80° C. until analysis. The tissue samples for LC-MS were further processed by protein precipitation (n=3) by diluting 20 μL of the homogenate with 80 μL ACN containing IS (tolbutamide). After centrifugation, the supernatant was further diluted in the appropriate solvent.

[1] = after 24 h, one value per rat, Hydrochloride, 5 mg/kg

With Cl.O=S(=O)(NCCN1CCNCC1)c1ccc(NC2CCCCC2)c(NCc2ccccc2)c1 [Compound 39, 3-(benzylamino)-4-(cyclohexylamino)-N-(2-(piperazin-1-yl)ethyl)benzenesulfonamide Hydrochloride] as the molecule, how does the concentration at 24 h (kidney, 5 mg/kg, after 24 h, one value per rat, read-out: Tissue distribution, Kidney) read?
The concentration at 24 h was 200 ng/g.

What about the concentration at 24 h (liver, 5 mg/kg, after 24 h, one value per rat, read-out: Tissue distribution, Liver) of the same molecule?
The concentration at 24 h was 230 ng/g.

And the concentration at 24 h (lung, 5 mg/kg, after 24 h, one value per rat, read-out: Tissue distribution, Lung)?
The concentration at 24 h was 480 ng/g.

What about the “Concentrations in all analyzed tissues (liver, kidney, lungs)” value (24 hours after administration) of the same molecule?
Its value is “Significant concentrations”.

And the “Tissue distribution, Kidney” value [1]?
Its value is 0.35 mg/kg organ and 0.38 mg/kg organ.

And the “Tissue distribution, Liver” value [1]?
The value was 0.22 mg/kg organ and 0.15 mg/kg organ.

What about the “Tissue distribution, Lung” value [1] of the same molecule?
Its value is 0.19^a mg/kg organ and 0.53 mg/kg organ.
